The structures appear in SMILES notation. ≈ marks a conversion by molar mass, not a printed value.

The first assay deals with K562/ADR (K562adr, drug-resistant chronic myeloid leukemia) cells. Nature of the assay: MTT cell growth inhibition, leukemia cells. The format is cell-based. As to conditions: Homo sapiens; K562/ADR, 72 h, MTT; read-out: IC50. From the text: (§1) Leukemia cell lines: leukemia cell lines: K562adr (drug-resistant, chronic myeloid leukemia, CML), NB4 (acute promyelocytic leukemia, AML), Kasumi-1 (acute myeloid leukemia M2 type, AML-M2), Jurkat (acute lymphoblastic leukemia, ALL), all of which were donated by Cancer Research Institute of Zhejiang University, China; and H9 (acute lymphoblastic leukemia, ALL), which was purchased from China Center for Type Culture Collection.
(§2) Reagents: The standard sample of fangchinoline (FAN) was purchased from Ci Yuan Biotechnology Co., Ltd., Shaanxi, China; and the 7-substituted fangchinoline derivatives according to the present invention.
(§3) 6000 well-growing leukemia cells were obtained and inoculated into wells of a 96-well cell culture plate. The culture medium was a RPMI-1640 cell culture medium containing 10% fetal bovine serum. After adding the 7-substituted fangchinoline derivatives of different concentrations the next day and mixing uniformly, the plate was placed in a carbon dioxide cell incubator (5% CO2) at 37° C. and incubating for 72 hours. Then the viable cell concentration was determined by the MTT method.
By IC50 is commonly meant the concentration that inhibits the measured activity by half. Consider `C=CCOc1c(OC)cc2c3c1Oc1cc4c(cc1OC)CCN(C)[C@H]4Cc1ccc(cc1)Oc1cc(ccc1OC)C[C@@H]3N(C)CC2` [BS-FC-213], for which the IC50 was determined as 0.38 µg/mL (≈ 0.586 µM).

Staying with this assay, now noted: Homo sapiens; K562/ADR, 72 h, MTT; read-out: IC90.
The term IC90 denotes the concentration needed for an effect of 90%. As to `C=CCOc1c(OC)cc2c3c1Oc1cc4c(cc1OC)CCN(C)[C@H]4Cc1ccc(cc1)Oc1cc(ccc1OC)C[C@@H]3N(C)CC2` [BS-FC-213], the IC90 turned out to be 1.72 µg/mL (≈ 2.65 µM).

The next assay has as its system NB4 (acute promyelocytic leukemia) cells. Nature of the assay: MTT cell growth inhibition, leukemia cells. Format: cell-based. As to conditions: Homo sapiens; NB4, 72 h, MTT; read-out: IC50.
Description: as §1, §2, §3
For the compound `C=CCOc1c(OC)cc2c3c1Oc1cc4c(cc1OC)CCN(C)[C@H]4Cc1ccc(cc1)Oc1cc(ccc1OC)C[C@@H]3N(C)CC2` [BS-FC-213], the IC50 was 0.66 µg/mL (≈ 1.02 µM).

Still in this assay, the particulars now being: Homo sapiens; NB4, 72 h, MTT; read-out: IC90.
In the case of `C=CCOc1c(OC)cc2c3c1Oc1cc4c(cc1OC)CCN(C)[C@H]4Cc1ccc(cc1)Oc1cc(ccc1OC)C[C@@H]3N(C)CC2` [BS-FC-213], the IC90 is 2.32 µg/mL (≈ 3.58 µM).

A further assay relates to H9 (acute lymphoblastic leukemia) cells. Nature of the assay: MTT cell growth inhibition, leukemia cells. Format: cell-based, human. To be noted: Homo sapiens; H9, 72 h, MTT; read-out: IC50.
Description: as §1, §2, §3
Regarding `C=CCOc1c(OC)cc2c3c1Oc1cc4c(cc1OC)CCN(C)[C@H]4Cc1ccc(cc1)Oc1cc(ccc1OC)C[C@@H]3N(C)CC2` [BS-FC-213], the IC50 turned out to be 2.2 µg/mL (≈ 3.39 µM).

Still in this assay, the particulars now being: Homo sapiens; H9, 72 h, MTT; read-out: IC90.
As to `C=CCOc1c(OC)cc2c3c1Oc1cc4c(cc1OC)CCN(C)[C@H]4Cc1ccc(cc1)Oc1cc(ccc1OC)C[C@@H]3N(C)CC2` [BS-FC-213], the 90% effect concentration (IC90) amounted to 4 µg/mL (≈ 6.17 µM).

In the next assay the test system is Jurkat (acute lymphoblastic leukemia) cells. Nature of the assay: MTT cell growth inhibition, leukemia cells. As to conditions: Homo sapiens; Jurkat, 72 h, MTT; read-out: IC50. The format is cell-based, human.
Description: as §1, §2, §3
`C=CCOc1c(OC)cc2c3c1Oc1cc4c(cc1OC)CCN(C)[C@H]4Cc1ccc(cc1)Oc1cc(ccc1OC)C[C@@H]3N(C)CC2` [BS-FC-213]: the IC50 turned out to be 0.64 µg/mL (≈ 0.986 µM).

Still in this assay, the particulars now being: Homo sapiens; Jurkat, 72 h, MTT; read-out: IC90.
As to `C=CCOc1c(OC)cc2c3c1Oc1cc4c(cc1OC)CCN(C)[C@H]4Cc1ccc(cc1)Oc1cc(ccc1OC)C[C@@H]3N(C)CC2` [BS-FC-213], the IC90 was determined as 3.29 µg/mL (≈ 5.07 µM).

Another assay concerns Kasumi-1 (acute myeloid leukemia M2 type) cells. Description: MTT cell growth inhibition, leukemia cells. Format: cell-based, human. To be noted: Homo sapiens; Kasumi-1, 72 h, MTT; read-out: IC50.
Description: as §1, §2, §3
As to `C=CCOc1c(OC)cc2c3c1Oc1cc4c(cc1OC)CCN(C)[C@H]4Cc1ccc(cc1)Oc1cc(ccc1OC)C[C@@H]3N(C)CC2` [BS-FC-213], the IC50 came to 0.93 µg/mL (≈ 1.43 µM).

The same assay, now with this note: Homo sapiens; Kasumi-1, 72 h, MTT; read-out: IC90.
For the compound `C=CCOc1c(OC)cc2c3c1Oc1cc4c(cc1OC)CCN(C)[C@H]4Cc1ccc(cc1)Oc1cc(ccc1OC)C[C@@H]3N(C)CC2` [BS-FC-213], the IC90 is 3.66 µg/mL (≈ 5.64 µM).

The next assay has as its system RPMI 8226 (multiple myeloma) cells. Nature of the assay: MTT cell growth inhibition, multiple myeloma cells. Format: cell-based, human. As to conditions: Homo sapiens; RPMI 8226, 72 h, MTT; read-out: IC50. The method, then: Myeloma cell lines: RPMI8226 (multiple myeloma), purchased from Fuxiang Bio-tech Co. Ltd., Shanghai, China.
6000 well-growing cells were obtained and inoculated into wells of a 96-well cell culture plate. The culture medium was a RPMI-1640 cell culture medium containing 10% fetal bovine serum. After adding the 7-substituted fangchinoline derivatives of different concentrations the next day and mixing uniformly, the plate was placed in a carbon dioxide cell incubator (5% CO2) at 37° C. and incubated for 72 hours. Then the viable cell concentration was determined by the MTT method.
For `C=CCOc1c(OC)cc2c3c1Oc1cc4c(cc1OC)CCN(C)[C@H]4Cc1ccc(cc1)Oc1cc(ccc1OC)C[C@@H]3N(C)CC2` [BS-FC-213], the 50% inhibitory concentration (IC50) stood at 0.12 µg/mL (≈ 0.185 µM).

The same assay, now with this note: Homo sapiens; RPMI 8226, 72 h, MTT; read-out: IC90.
Regarding `C=CCOc1c(OC)cc2c3c1Oc1cc4c(cc1OC)CCN(C)[C@H]4Cc1ccc(cc1)Oc1cc(ccc1OC)C[C@@H]3N(C)CC2` [BS-FC-213], the IC90 worked out at 0.5 µg/mL (≈ 0.771 µM).

A further assay concerns CNE (nasopharyngeal carcinoma) cells. Nature of the assay: MTT cell growth inhibition, solid tumor cells. Format: cell-based, human. As to conditions: Homo sapiens; CNE, 72 h, MTT; read-out: IC50. From the text:
(§4) Hep-2 (laryngeal carcinoma), A549 (human lung cancer), CaES-17 (esophageal cancer cell), PC-3 (prostate cancer), CNE (nasopharyngeal carcinoma cell) and SK-OV-3 (ovarian cancer cell), all of which were purchased from China Center For Type Culture Collection; RKO (human colon adenocarcinoma cell), MGC-803 (human gastric cancer cell), MG-63 (osteosarcoma), and U87-MG (malignant glioma cell), all of which were purchased from Fuxiang Bio-tech Co. Ltd., Shanghai, China; PANC-1 (pancreatic cancer), Becap37 (human breast cancer cell), Hela (human cervical cancer cell) and Hep G2 (human liver cancer cell), all of which were donated by Cancer Research Institute of Zhejiang University, China.
(§5) 6000 well-growing human solid tumor cells were obtained and inoculated into wells of a 96-well cell culture plate. The culture medium was DMEM High Glucose cell culture medium containing 10% fetal bovine serum. The plate was placed in a carbon dioxide cell incubator (5% CO2) at 37° C. and incubated for 24 hours. After added with 7-substituted fangchinoline derivatives of different concentration and mixing uniformly, the plate was placed in a carbon dioxide cell incubator (5% CO2) at 37° C. and incubated for 72 hours. Then the viable cell concentration was determined by the MTT method.
As for `C=CCOc1c(OC)cc2c3c1Oc1cc4c(cc1OC)CCN(C)[C@H]4Cc1ccc(cc1)Oc1cc(ccc1OC)C[C@@H]3N(C)CC2` [BS-FC-213], the IC50 turned out to be 2.7 µg/mL (≈ 4.16 µM).

Staying with this assay, now noted: Homo sapiens; CNE, 72 h, MTT; read-out: IC90.
Take `C=CCOc1c(OC)cc2c3c1Oc1cc4c(cc1OC)CCN(C)[C@H]4Cc1ccc(cc1)Oc1cc(ccc1OC)C[C@@H]3N(C)CC2` [BS-FC-213]: the IC90 amounted to 5.6 µg/mL (≈ 8.63 µM).

A further assay relates to CaEs-17 (esophageal cancer) cells. Description: MTT cell growth inhibition, solid tumor cells. Format: cell-based, human. As to conditions: Homo sapiens, CaEs17; CaEs-17, 72 h, MTT; read-out: IC50.
Description: as §4, §5
Consider `C=CCOc1c(OC)cc2c3c1Oc1cc4c(cc1OC)CCN(C)[C@H]4Cc1ccc(cc1)Oc1cc(ccc1OC)C[C@@H]3N(C)CC2` [BS-FC-213], for which the IC50 was 1.68 µg/mL (≈ 2.59 µM).

Still in this assay, the particulars now being: Homo sapiens, CaEs17; CaEs-17, 72 h, MTT; read-out: IC90.
Turning to `C=CCOc1c(OC)cc2c3c1Oc1cc4c(cc1OC)CCN(C)[C@H]4Cc1ccc(cc1)Oc1cc(ccc1OC)C[C@@H]3N(C)CC2` [BS-FC-213], the IC90 was determined as 9.16 µg/mL (≈ 14.1 µM).

Another assay concerns PANC-1 (pancreatic cancer) cells. Description: MTT cell growth inhibition, solid tumor cells. The format is cell-based, human. As to conditions: Homo sapiens; PANC-1, 72 h, MTT; read-out: IC50.
Description: as §4, §5
Consider `C=CCOc1c(OC)cc2c3c1Oc1cc4c(cc1OC)CCN(C)[C@H]4Cc1ccc(cc1)Oc1cc(ccc1OC)C[C@@H]3N(C)CC2` [BS-FC-213], for which the IC50 was found to be 3.46 µg/mL (≈ 5.33 µM).

The record behind these values is patent publication US9328122B2, “7-substituted Hanfangichin B derivative, and preparation method and use thereof” (HANGZHOU BENSHENG PHARMACEUTICAL CO., LTD., priority 2012, dated 2016).
